Experimental data: patent US20250368666A1, “INDAZOLE COMPOUNDS” (TYRA BIOSCIENCES, INC., priority 2022, published 2025)

Legend:
[1] = system: MDA-MB-453 cell line (FGFR4-Y367C); test: Cancer cell line cell viability assay (Cell Titer-Glo), 120 hr; assay type: cell-based; settings: Homo sapiens
Procedure, shortened: (§1)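 ATP-based luminescence (Cell Titer-Glo 2.0) measured viability after 72 h (KG-1, RT112/84) or 120 h (MDA-MB-453, HuH7) compound exposure. Dosing was nine 4-fold steps starting at 3 μM, in triplicate, on overnight-plated cells. IC50 came from a variable-slope 4-parameter fit of % DMSO control.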

[2] = system: KATO-III cell line (FGFR2 amplification); test: Cancer cell line cell viability assay (Cell Titer-Glo), 72 hr; assay type: cell-based; settings: Homo sapiens, KATO III
Procedure, shortened: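 Following overnight attachment, each line receives compound in triplicate across nine 4-fold dilutions starting at 3 μM, with DMSO backfill for equal solvent. Luminescence after Cell Titer-Glo 2.0 addition gives percent viability versus DMSO control, fitted by 4-parameter logistic for IC50.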

[3] = system: KG-1 cell line (FGFR 1-fusion); test: as above; assay type: cell-based; settings: Homo sapiens, KG-1, KG-1 cell line (FGFR1-fusion)
Procedure, shortened: as §1

[4] = system: RT112/84 cell line (FGFR3-fusion); test: as above; assay type: cell-based; settings: Homo sapiens, RT112/84, RT112/84 cell line (FGFR3-fusion)
Procedure, shortened: as §1

FGFR3 = target: T1, FGFR3 (Homo sapiens, UniProt P22607); test: Kinase binding assay (kinase-tagged T7 phage, affinity beads, qPCR), Kd; settings: read-out: FGFR3 (Kd nM)
T1 construct: made in house; host or cells: E. coli (BL21-derived), T7 phage
T1 sequence (P22607 23-806): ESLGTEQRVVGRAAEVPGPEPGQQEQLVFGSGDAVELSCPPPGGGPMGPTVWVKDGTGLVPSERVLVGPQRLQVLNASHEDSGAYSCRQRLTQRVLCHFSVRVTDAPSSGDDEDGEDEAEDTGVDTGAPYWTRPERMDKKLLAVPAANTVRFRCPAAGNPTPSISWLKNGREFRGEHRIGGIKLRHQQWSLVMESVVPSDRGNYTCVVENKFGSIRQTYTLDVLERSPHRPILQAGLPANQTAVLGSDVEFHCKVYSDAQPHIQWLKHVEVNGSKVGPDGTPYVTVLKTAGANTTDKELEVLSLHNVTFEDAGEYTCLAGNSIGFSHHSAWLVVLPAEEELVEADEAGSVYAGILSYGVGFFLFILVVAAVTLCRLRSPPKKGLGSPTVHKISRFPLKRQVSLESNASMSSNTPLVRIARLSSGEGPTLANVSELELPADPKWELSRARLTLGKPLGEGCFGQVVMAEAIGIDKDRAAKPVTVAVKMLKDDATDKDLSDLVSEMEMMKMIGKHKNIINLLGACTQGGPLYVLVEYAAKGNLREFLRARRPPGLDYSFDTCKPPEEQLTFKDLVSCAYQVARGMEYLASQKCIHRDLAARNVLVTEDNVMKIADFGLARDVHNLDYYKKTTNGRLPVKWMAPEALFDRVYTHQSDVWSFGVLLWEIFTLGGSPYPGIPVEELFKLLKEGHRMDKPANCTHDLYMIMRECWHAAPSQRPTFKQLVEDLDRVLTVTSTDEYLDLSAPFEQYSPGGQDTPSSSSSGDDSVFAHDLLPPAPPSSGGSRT
Procedure, shortened: (§2)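 First, phage lysates carrying tagged kinase are made in E. coli at 32° C. Next, they are combined with blocked biotin-ligand streptavidin beads and compound at 0.9% final DMSO. Finally, eluted kinase is measured by qPCR and Kd is fitted with the Hill equation.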

FGFR2 = target: T2, FGFR2 (Homo sapiens, UniProt P21802); test: as above; settings: read-out: FGFR2 (Kd nM)
T2 construct: made in house; host or cells: E. coli (BL21-derived), T7 phage
T2 sequence (P21802 22-821): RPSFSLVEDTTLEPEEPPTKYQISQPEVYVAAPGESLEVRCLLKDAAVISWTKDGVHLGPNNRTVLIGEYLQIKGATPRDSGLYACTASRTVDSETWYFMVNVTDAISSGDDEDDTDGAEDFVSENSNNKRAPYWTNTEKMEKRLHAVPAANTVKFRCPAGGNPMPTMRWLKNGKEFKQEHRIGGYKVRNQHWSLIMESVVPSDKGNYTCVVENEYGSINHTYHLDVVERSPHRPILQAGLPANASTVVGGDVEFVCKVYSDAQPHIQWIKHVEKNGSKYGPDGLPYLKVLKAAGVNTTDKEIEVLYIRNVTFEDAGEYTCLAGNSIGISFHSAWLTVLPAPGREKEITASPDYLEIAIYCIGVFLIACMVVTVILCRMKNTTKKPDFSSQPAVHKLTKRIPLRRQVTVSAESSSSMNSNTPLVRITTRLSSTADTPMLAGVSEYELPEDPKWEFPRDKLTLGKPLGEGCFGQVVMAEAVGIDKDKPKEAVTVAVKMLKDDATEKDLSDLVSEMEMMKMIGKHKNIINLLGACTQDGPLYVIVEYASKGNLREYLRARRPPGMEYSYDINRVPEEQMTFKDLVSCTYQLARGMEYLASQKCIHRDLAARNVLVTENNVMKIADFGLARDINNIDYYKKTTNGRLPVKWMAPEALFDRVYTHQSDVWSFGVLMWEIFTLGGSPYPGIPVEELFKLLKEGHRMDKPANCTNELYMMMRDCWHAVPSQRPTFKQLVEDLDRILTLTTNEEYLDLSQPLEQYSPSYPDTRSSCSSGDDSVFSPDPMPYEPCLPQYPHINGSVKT
Procedure, shortened: as §2

FGFR1 = target: T3, FGFR1 (Homo sapiens, UniProt P11362); test: as above; settings: read-out: FGFR1 (Kd nM)
T3 construct: made in house; host or cells: E. coli (BL21-derived), T7 phage
T3 sequence (P11362 22-822): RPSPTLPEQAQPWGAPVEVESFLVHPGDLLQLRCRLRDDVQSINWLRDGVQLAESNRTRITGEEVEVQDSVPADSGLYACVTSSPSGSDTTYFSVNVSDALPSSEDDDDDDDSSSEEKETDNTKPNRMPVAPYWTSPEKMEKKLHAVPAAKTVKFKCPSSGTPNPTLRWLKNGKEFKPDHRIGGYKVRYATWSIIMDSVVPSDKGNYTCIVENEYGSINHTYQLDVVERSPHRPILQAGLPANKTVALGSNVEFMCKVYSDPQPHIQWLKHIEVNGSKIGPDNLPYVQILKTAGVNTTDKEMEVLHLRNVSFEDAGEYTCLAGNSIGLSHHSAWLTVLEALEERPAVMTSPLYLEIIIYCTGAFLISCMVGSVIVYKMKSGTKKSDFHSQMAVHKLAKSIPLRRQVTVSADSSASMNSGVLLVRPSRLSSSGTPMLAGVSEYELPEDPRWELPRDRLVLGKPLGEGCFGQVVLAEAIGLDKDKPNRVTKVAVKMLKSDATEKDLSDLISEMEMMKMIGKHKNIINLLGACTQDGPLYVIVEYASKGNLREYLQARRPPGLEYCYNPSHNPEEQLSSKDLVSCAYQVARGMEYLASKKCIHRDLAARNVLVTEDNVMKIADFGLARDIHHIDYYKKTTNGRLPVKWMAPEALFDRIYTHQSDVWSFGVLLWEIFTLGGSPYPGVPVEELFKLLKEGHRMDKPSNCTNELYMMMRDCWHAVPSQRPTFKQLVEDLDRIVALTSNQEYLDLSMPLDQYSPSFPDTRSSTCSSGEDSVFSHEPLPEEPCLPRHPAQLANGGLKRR
Procedure, shortened: as §2

FGFR3 (V555M) = target: T4, FGFR3 (V555M) (Homo sapiens, UniProt P22607, V555M); test: as above; settings: V555M mutant; read-out: FGFR3 (V555M) (Kd nM)
T4 construct: made in house; host or cells: E. coli (BL21-derived), T7 phage
T4 sequence (P22607 23-806 V555M): as the sequence (P22607 23-806) above, with V533M counted along it
Procedure, shortened: as §2

FGFR4 = target: T5, FGFR4 (Homo sapiens, UniProt P22455); test: as above; settings: read-out: FGFR4 (Kd nM)
T5 construct: made in house; host or cells: E. coli (BL21-derived), T7 phage
T5 sequence (P22455 22-802): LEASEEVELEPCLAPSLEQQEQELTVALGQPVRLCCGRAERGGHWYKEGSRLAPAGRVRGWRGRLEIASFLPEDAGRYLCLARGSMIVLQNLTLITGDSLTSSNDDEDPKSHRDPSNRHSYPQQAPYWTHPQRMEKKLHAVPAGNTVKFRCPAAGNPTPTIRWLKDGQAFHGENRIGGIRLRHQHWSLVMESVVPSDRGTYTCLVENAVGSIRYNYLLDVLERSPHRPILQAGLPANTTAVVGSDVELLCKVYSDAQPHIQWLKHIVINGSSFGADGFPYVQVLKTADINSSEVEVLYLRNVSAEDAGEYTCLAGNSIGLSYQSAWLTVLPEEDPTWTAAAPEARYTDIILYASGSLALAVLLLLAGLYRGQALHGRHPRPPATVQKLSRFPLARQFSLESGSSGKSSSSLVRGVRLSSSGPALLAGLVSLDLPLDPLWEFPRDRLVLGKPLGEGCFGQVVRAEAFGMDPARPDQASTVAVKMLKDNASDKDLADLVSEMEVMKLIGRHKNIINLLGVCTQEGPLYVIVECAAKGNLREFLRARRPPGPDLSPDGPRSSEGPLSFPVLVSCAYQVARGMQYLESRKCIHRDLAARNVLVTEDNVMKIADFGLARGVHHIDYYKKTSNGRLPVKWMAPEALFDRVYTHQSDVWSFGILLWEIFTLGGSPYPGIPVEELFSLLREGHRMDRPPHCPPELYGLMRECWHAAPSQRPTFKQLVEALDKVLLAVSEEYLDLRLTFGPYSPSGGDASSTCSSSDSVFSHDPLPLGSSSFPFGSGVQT
Procedure, shortened: as §2

| Structure (SMILES) | IC50 [1] [nM] | IC50 [2] [nM] | IC50 [3] [nM] | IC50 [4] [nM] | Kd (FGFR3) [nM] | Kd (FGFR2) [nM] | Kd (FGFR1) [nM] | Kd (FGFR3 (V555M)) [nM] | Kd (FGFR4) [nM] |
| --- | --- | --- | --- | --- | --- | --- | --- | --- | --- |
| CC[C@H](C)NC1(C)CN(c2ccc(-c3n[nH]c4ccc(O[C@H](C)c5c(Cl)cncc5Cl)cc34)cn2)C1 [Example 228, 1-[5-[5-[(1R)-1-(3,5-dichloro-4-pyridyl)ethoxy]-1H-indazol-3-yl]-2-pyridyl]-3-methyl-N-[(1S)-1-meth-ylpropyl]azetidin-3-amine] | 50 to 200 | 0.1 to 50 | 50 to 200 | 0.1 to 50 | 1 to 50 | 1 to 50 | 1 to 50 | 1 to 50 | 1 to 50 |
| C[C@@H](Oc1ccc2[nH]nc(-c3cnc(N4CC(C)(NCCS(C)(=O)=O)C4)c(F)c3)c2c1)c1c(Cl)cncc1Cl [Example 166, (R)-1-(5-(5-(1-(3,5-Dichloropyridin-4-yl)ethoxy)-1H-indazol-3-yl)-3-fluoropyridin-2-yl)-3-methyl-N-(2-(methylsulfonyl)ethyl)azetidin-3-amine] | 0.1 to 50 | 0.1 to 50 | 50 to 200 | 0.1 to 50 | 1 to 50 | 1 to 50 | 1 to 50 | 1 to 50 | 1 to 50 |
| Cc1ncc(Cl)c([C@@H](C)Oc2ccc3[nH]nc(-c4ccc(N5CC(C)(N6CCOCC6)C5)nc4)c3c2)c1Cl [Example 77, 4-[1-[5-[5-[(1R)-1-(3,5-dichloro-2-methyl-4-pyridyl)ethoxy]-1H-indazol-3-yl]-2-pyridyl]-3-methyl-azetidin-3-yl]morpholine] | 200 to 1000 | 50 to 200 | 200 to 1000 | 0.1 to 50 | 1 to 50 | 1 to 50 | 1 to 50 | 1 to 50 | 1 to 50 |
| C[C@@H](Oc1ccc2[nH]nc(-c3cnc(N4CC(C)(NCC(F)F)C4)c(F)c3)c2c1)c1c(Cl)cncc1Cl [Example 155, 1-[5-[5-[(1R)-1-(3,5-dichloro-4-pyridyl)ethoxy]-1H-indazol-3-yl]-3-fluoro-2-pyridyl]-N-(2,2-difluoroethyl)-3-methyl-azetidin-3-amine] | 50 to 200 | 0.1 to 50 | 50 to 200 | 0.1 to 50 | 1 to 50 | 1 to 50 | 1 to 50 | 1 to 50 | 1 to 50 |
| C[C@@H](Oc1ccc2[nH]nc(-c3cnc(N4C[C@@H](CS(C)(=O)=O)[C@@H]4C)c(F)c3)c2c1)c1c(Cl)cncc1Cl [Example 206, 5-((R)-1-(3,5-dichloropyridin-4-yl)ethoxy)-3-(5-fluoro-6-((2S,3R)-2-methyl-3-((methylsulfonyl)methyl)azetidin-1-yl)pyridin-3-yl)-1H-indazole] | 50 to 200 | 0.1 to 50 | 50 to 200 | 0.1 to 50 | 1 to 50 | 1 to 50 | 1 to 50 | 1 to 50 | 1 to 50 |
| C[C@@H]1[C@@H](CS(C)(=O)=O)CN1c1ncc(-c2n[nH]c3ccc(O[C@H](C)c4c(Cl)cncc4Cl)cc23)cc1F [Example 207, 5-((R)-1-(3,5-dichloropyridin-4-yl)ethoxy)-3-(5-fluoro-6-((2R,3S)-2-methyl-3-((methylsulfonyl)methyl)azetidin-1-yl)pyridin-3-yl)-1H-indazole] | 50 to 200 | 50 to 200 | 50 to 200 | 0.1 to 50 | 1 to 50 | 1 to 50 | 1 to 50 | 1 to 50 | 1 to 50 |
| COc1cc2[nH]nc(-c3ccc(N4CC(C)(NCCO)C4)nc3)c2cc1O[C@H](C)c1c(Cl)cncc1Cl [Example 83, (R)-2-((1-(5-(5-(1-(3,5-dichloropyridin-4-yl)ethoxy)-6-methoxy-1H-indazol-3-yl)pyridin-2-yl)-3-methylazetidin-3-yl)amino)ethan-1-ol] | 0.1 to 50 | 0.1 to 50 | 50 to 200 | 0.1 to 50 | 1 to 50 | 1 to 50 | 1 to 50 | 1 to 50 | 1 to 50 |
| C[C@@H](Oc1ccc2[nH]nc(-c3ccc(N4CC(C)(CS(C)(=O)=O)C4)nc3)c2c1)c1c(Cl)cncc1Cl [Example 181, (R)-5-(1-(3,5-dichloropyridin-4-yl)ethoxy)-3-(6-(3-methyl-3-((methylsulfonyl)-methyl)azetidin-1-yl)pyridin-3-yl)-1H-indazole] | 50 to 200 | 0.1 to 50 | 50 to 200 | 0.1 to 50 | 1 to 50 | 1 to 50 | 1 to 50 | 1 to 50 | 1 to 50 |
| C[C@@H](Oc1ccc2[nH]nc(-c3cnc(N4CC(C)(N5CCS(=O)(=O)CC5)C4)c(F)c3)c2c1)c1c(Cl)cncc1Cl [Example 167, 4-[1-[5-[5-[(1R)-1-(3,5-dichloro-4-pyridyl)ethoxy]-1H-indazol-3-yl]-3-fluoro-2-pyridyl]-3-methyl-azetidin-3-yl]-1,4-thiazinane 1,1-dioxide] | 0.1 to 50 | 0.1 to 50 | 50 to 200 | 0.1 to 50 | 1 to 50 | 1 to 50 | 1 to 50 | 1 to 50 | 1 to 50 |
| CNC1(C)CN(c2ncc(-c3n[nH]c4ccc(O[C@@H](C)c5c(Cl)cncc5Cl)cc34)cc2F)C1 [Example 205, 1-[5-[5-[(1S)-1-(3,5-dichloro-4-pyridyl)ethoxy]-1H-indazol-3-yl]-3-fluoro-2-pyridyl]-N,3-dimethyl-azetidin-3-amine] | > 1000 | 200 to 1000 | > 1000 | > 1000 | 50 to 300 | 300 to 1000 | 50 to 300 | 1 to 50 | 50 to 300 |
| CCCNC1(C)CN(c2ccc(-c3n[nH]c4ccc(O[C@H](C)c5c(Cl)cncc5Cl)cc34)cn2)C1 [Example 227, 1-[5-[5-[(1R)-1-(3,5-dichloro-4-pyridyl)ethoxy]-1H-indazol-3-yl]-2-pyridyl]-3-methyl-N-propyl-azetidin-3-amine] | 50 to 200 | 0.1 to 50 | 50 to 200 | 0.1 to 50 | 1 to 50 | 1 to 50 | 1 to 50 | 1 to 50 | 1 to 50 |
| C[C@@H](Oc1ccc2[nH]nc(-c3cnc(N4CC(C)(NC(=O)CN(C)C)C4)c(F)c3)c2c1)c1c(Cl)cncc1Cl (stereo in doubt) [Example 156, N-(1-(5-(5-(1-(3,5-dichloropyridin-4-yl)ethoxy)-1H-indazol-3-yl)-3-fluoropyridin-2-yl)-3-methylazetidin-3-yl)-2-(dimethylamino)-acetamide] | 50 to 200 | 0.1 to 50 | 50 to 200 | 0.1 to 50 | 1 to 50 | 1 to 50 | 1 to 50 | 1 to 50 | 1 to 50 |
| C[C@H](Oc1ccc2[nH]nc(-c3cnc(N4CC(C)(CS(C)(=O)=O)C4)c(F)c3)c2c1)c1c(Cl)cncc1Cl [Example 200, (S)-5-(1-(3,5-dichloropyridin-4-yl)ethoxy)-3-(5-fluoro-6-(3-methyl-3-((methyl-sulfonyl)meth-yl)azetidin-1-yl)pyridin-3-yl)-1H-indazole] | > 1000 | > 1000 | > 1000 | > 1000 | 50 to 300 | > 1000 | 300 to 1000 | 1 to 50 | 50 to 300 |
